Assay results from US20090182011A1, “Chimeric Nitrate Esters and Use of the Same in a Treatment for Depression” (UNIVERSITY OF ILLINOIS CHICAGO, priority 2008, published 2009).

Columns and labels:
[1] = NO-fluoxetine bioactivation in phosphate buffer; type: physicochemical; details: 50 mM phosphate buffer solutions pH 7.0, 7.4 and 8.0
Protocol: In Phosphate buffer saline A stock solution of NO-fluoxetine was prepared by dissolving 1 mg of the compound in 100 μL MeOH (21 mM). An aliquot (10 μL) of the stock solution was added to 990 μL of 50 mM phosphate buffer (pH 7.4) at 22° C., and the formation of fluoxetine was monitored by reverse phase HPLC using 4.6 mm×150 mm C18 column at a flow rate of 1.0 mL/min. The mobile phase contained 60% acetonitrile content, which was increased to 90% over 5 min. After the phase was held 90% for 5 min, the acetonitrile was reduced to 60% in 5 min. Formation of fluoxetine in buffers was positively identified by comparing retention time and the LC-MS (electrospary ionization) protonated [M+H]+ molecular ion (m/z 310) of the authentic sample. Fluoxetine formation was monitored every 15 min and percentage of fluoxetine formation was obtained with respect to time. Kinetic experiments were performed in 50 mM phosphate buffer solutions (pH 7.0, pH 7.4, and pH 8.0).
Formation of fluoxetine in buffer was positively identified by comparison to the retention time and the LC-MS (electrospary ionization) protonated [M+H]+ molecular ion (m/z 310) of an authentic fluoxetine sample.
Kinetic studies for the degradation of NO-fluoxetine were performed by monitoring the production of fluoxetine every 15 min in different pH buffer solutions (See FIG. 1).

[2] = NO-fluoxetine bioactivation in rat liver microsomes; type: in vitro ADME; details: 0.25 mM substrate, NADPH, 30 min, 37° C.
Protocol: In rat liver microsomes A solution containing substrate (0.25 mM), rat liver microsomes (3 nmol of P450/0.5 mL), and NADPH (2 mM) in 50 mM phosphate buffer (pH 7.4, 0.5 mL total volume) was incubated for 30 min at 37° C. The reaction was quenched by addition of acetonitrile and centrifugation for 10 min. The solution was filtered and injected to HPLC.

[3] = NO-fluoxetine bioactivation in rat plasma; type: in vitro ADME; details: 0.25 mM substrate, 30 min, 37° C.
Protocol: In plasma A solution containing substrate (0.25 mM) and rat plasma (0.1 mL) was incubated for 30 min at 37° C. The reaction was quenched by addition of acetonitrile and centrifugation for 10 min. The solution was filtered and injected to HPLC.

[4] = NOx detection (NO analyzer, Griess assay); details: incubated with GSH
Protocol: NOx detection A degassed solution containing NO-fluoxetine (0.5 mM), and cysteine (5 mM) or GSH (5 mM) in 50 mM phosphate buffer (pH 7.4, 1 mL total volume) was incubated for 30 min at 37° C. After 30 min, nitric oxide was detected using an NO analyzer, and nitrite and nitrate was detected using Griess assay.

male Sprague Dawley rats = assay: Modified forced swimming test; type: in vivo, rat; details: 26.5 mg/kg i.p. 23.5, 5 and 1 hour before the test
Protocol: Modified forced swimming test This test was performed using male Sprague Dawley rats weighing 200-250 g. Rats were trained to swim in the water tank for 15 minutes 24 hour before the test. NO-Fluoxetine was administered by i.p. injections 23.5, 5, and 1 hour before the test at a dose of 26.5 mg/kg, which is equimolar to 20 mg/kg fluoxetine. NO-fluoxetine was freshly prepared in an emulsion formed of 5% Tween 80. The test was performed by putting the rats in a water tank consisting of an acrylic cylinder (22 cm diameter, 30 cm water depth, 25° C. water temperature) for 5 minutes. The 5 minute test was divided into 60 blocks of 5 seconds each. The major behavior in each 5 sec block was assigned for the whole block, including climbing, swimming, and immobile. The blocks representing different behaviors were counted.
In vivo NO-fluoxetine (26.5 mg/kg equimolar to 20 mg/kg fluoxetine) given by i.p. injections 23.5, 5, and 1 hour before the test was active in the modified forced swimming test, showing an increase in the swimming behaviour and a decrease in the immobility behaviour. Sub-acute injection of NO-fluoxetine provides sufficient time for the bioactivation of NO-fluoxetine and the subsequent release of fluoxetine.
Values presented as mean±SEM, n=6 per group. The data were statistically evaluated by ANOVA, followed by Turkey post-hoc test.

male C57BL/6 mice = assay: Step-through passive avoidance (STPA) task, scopolamine induced memory impairment; details: for effect on 48 h retention (scopolamine induced long term memory impairment): 4.5 umole/kg i.p. 20 minutes before training (NO-fluoxetine 2.05 mg/kg, fluoxetine 1.54 mg/kg), scopolamine 1 mg/kg
Protocol: Step-through passive avoidance (STPA) task This test was performed on male C57BL/6 mice (from Charles River's Laboratories), 8-10 weeks of age and weighing 22-27 g. The mice were kept under standardized laboratory conditions (temperature 21±1° C., humidity 50-60%) with free access to food and tap water in a room with a natural light-dark cycle.
Avoidance experiment was divided into 3 phases: habituation, training, and retention. The apparatus used consisted of a box divided into 2 compartments, an illuminated compartment adjacent to a dark compartment, the floor consisted of an electric grid controlled by a switch that can deliver an electric shock only to the dark compartment. A doorway was located at floor level in the center of the connecting wall; the door was closed once the mouse enters the dark compartment. The habituation phase was performed by individually putting the mice in the light compartment; the door was closed once the mouse enters the dark compartment (without an electric shock), left there for 15 seconds before being returned to its cage. The time (latency) to enter the dark box was recorded for each mouse; only mice scoring less than 30 seconds for three consecutive times were allowed to pass for the training phase. Training phase was performed 2 hours after the habituation phase by individually placing the mice again in the illuminated compartment but an electric shock (0.6 mA for 2 s) was delivered immediately after the mouse entered the dark compartment accompanied by the door closure. Trial was repeated for a maximum of 5 trials or until the mouse remained in the light compartment for 300 seconds in one of the trials. During the training phase, the number of trials and the time (latency) to enter the dark compartment was scored. Mice that entered the dark compartment in the fifth trial in less than 300 seconds were eliminated from the experiment. Forty-eight hours after the training trial, a retention test was conducted in which the same animals were put into the illuminated box and again the latency to enter the dark box was recorded. The retention trial ended when the mouse entered the dark box or 300 s had elapsed, whichever occurred first. Scopolamine (1 mg/kg) dissolved in physiological saline water was administered by i.p. injection 30 minutes before the training phase and drugs dissolved in 25% DMSO were administered by i.p. injection 20 minutes before the training.
The data were statistically evaluated by one way ANOVA, followed by Tukey post-hoc test.

Compound | conversion in buffer [1] | product of reaction with rat liver microsomes [2] | product of reaction with plasma [3] | nitric oxide release [4] | activity in the modified forced swimming test (male Sprague Dawley rats) | immobility behaviour (male Sprague Dawley rats) | swimming behaviour (male Sprague Dawley rats) | effect on 48 h retention (scopolamine induced long term memory impairment) (male C57BL/6 mice) | animals that failed to learn the STPA task during the training phase (male C57BL/6 mice; 4.5 umole/kg i.p. 20 minutes before training)
CN(CCC(Oc1ccc(C(F)(F)F)cc1)c1ccccc1)C(=O)SCCO[N+](=O)[O-] (stereo not shown) [NO-fluoxetine] | converted to fluoxetine | generated fluoxetine as the major product | generated fluoxetine as the major product | released nitric oxide | active | decrease | increase | reversed the scopolamine induced long term memory impairment | 
CNCCC(Oc1ccc(C(F)(F)F)cc1)c1ccccc1 (stereo not shown) [fluoxetine] |  |  |  |  |  |  |  | did not have an effect | 5 of 12 and zero
